Normalised inhibition (eCFP-eYFP dual reporter) data for 20 substances are collected here from the OligoGym collection.

Oligonucleotides are given in HELM: sugar(base)linkage, 5' to 3'; d 2'-deoxyribose, r ribose, m 2'-O-methylribose, p phosphate. ss, as = sense and antisense strand
Further: test concentration or dose not given here.

In the data set the target is Cacnb1 (rat). As to the kind of experiment: reporter assay of Huesken 2005. The following applies: siRNA.
Turning to “RNA1{r(C)p.r(C)p.r(A)p.r(A)p.r(G)p.r(G)p.r(A)p.r(C)p.r(U)p.r(U)p.r(C)p.r(C)p.r(U)p.r(G)p.r(C)p.r(A)p.r(C)p.r(A)p.r(U)p.d(T)p.d(T)}|RNA2{r(A)p.r(U)p.r(G)p.r(U)p.r(G)p.r(C)p.r(A)p.r(G)p.r(G)p.r(A)p.r(A)p.r(G)p.r(U)p.r(C)p.r(C)p.r(U)p.r(U)p.r(G)p.r(G)p.d(G)p.d(C)}$$$RNA1{StrandType:ss}|RNA2{StrandType:as}$”, the normalised inhibition (eCFP-eYFP dual reporter) came to 63.2%.
“RNA1{r(C)p.r(C)p.r(A)p.r(C)p.r(C)p.r(C)p.r(A)p.r(A)p.r(U)p.r(C)p.r(C)p.r(G)p.r(C)p.r(U)p.r(G)p.r(C)p.r(U)p.r(G)p.r(A)p.d(T)p.d(T)}|RNA2{r(U)p.r(C)p.r(A)p.r(G)p.r(C)p.r(A)p.r(G)p.r(C)p.r(G)p.r(G)p.r(A)p.r(U)p.r(U)p.r(G)p.r(G)p.r(G)p.r(U)p.r(G)p.r(G)p.d(C)p.d(G)}$$$RNA1{StrandType:ss}|RNA2{StrandType:as}$” registered a normalised inhibition (eCFP-eYFP dual reporter) of 81.5%.
As for “RNA1{r(C)p.r(C)p.r(C)p.r(G)p.r(C)p.r(C)p.r(A)p.r(A)p.r(G)p.r(A)p.r(C)p.r(A)p.r(C)p.r(C)p.r(U)p.r(U)p.r(U)p.r(G)p.r(A)p.d(T)p.d(T)}|RNA2{r(U)p.r(C)p.r(A)p.r(A)p.r(A)p.r(G)p.r(G)p.r(U)p.r(G)p.r(U)p.r(C)p.r(U)p.r(U)p.r(G)p.r(G)p.r(C)p.r(G)p.r(G)p.r(G)p.d(A)p.d(T)}$$$RNA1{StrandType:ss}|RNA2{StrandType:as}$”, the normalised inhibition (eCFP-eYFP dual reporter) was 57.6%.
For “RNA1{r(C)p.r(C)p.r(U)p.r(G)p.r(G)p.r(A)p.r(C)p.r(G)p.r(A)p.r(G)p.r(A)p.r(A)p.r(C)p.r(C)p.r(A)p.r(A)p.r(U)p.r(U)p.r(G)p.d(T)p.d(T)}|RNA2{r(C)p.r(A)p.r(A)p.r(U)p.r(U)p.r(G)p.r(G)p.r(U)p.r(U)p.r(C)p.r(U)p.r(C)p.r(G)p.r(U)p.r(C)p.r(C)p.r(A)p.r(G)p.r(G)p.d(A)p.d(T)}$$$RNA1{StrandType:ss}|RNA2{StrandType:as}$” the value was 80.2%; for “RNA1{r(C)p.r(C)p.r(U)p.r(U)p.r(A)p.r(G)p.r(C)p.r(C)p.r(C)p.r(A)p.r(G)p.r(C)p.r(U)p.r(C)p.r(G)p.r(A)p.r(G)p.r(A)p.r(A)p.d(T)p.d(T)}|RNA2{r(U)p.r(U)p.r(C)p.r(U)p.r(C)p.r(G)p.r(A)p.r(G)p.r(C)p.r(U)p.r(G)p.r(G)p.r(G)p.r(C)p.r(U)p.r(A)p.r(A)p.r(G)p.r(G)p.d(C)p.d(C)}$$$RNA1{StrandType:ss}|RNA2{StrandType:as}$”, 76.8%.
For “RNA1{r(C)p.r(G)p.r(A)p.r(A)p.r(A)p.r(C)p.r(U)p.r(C)p.r(U)p.r(G)p.r(U)p.r(C)p.r(U)p.r(A)p.r(C)p.r(A)p.r(C)p.r(G)p.r(G)p.d(T)p.d(T)}|RNA2{r(C)p.r(C)p.r(G)p.r(U)p.r(G)p.r(U)p.r(A)p.r(G)p.r(A)p.r(C)p.r(A)p.r(G)p.r(A)p.r(G)p.r(U)p.r(U)p.r(U)p.r(C)p.r(G)p.d(G)p.d(C)}$$$RNA1{StrandType:ss}|RNA2{StrandType:as}$” the value was 44%.
The value for “RNA1{r(C)p.r(G)p.r(A)p.r(G)p.r(C)p.r(G)p.r(C)p.r(U)p.r(C)p.r(C)p.r(A)p.r(A)p.r(C)p.r(A)p.r(C)p.r(U)p.r(C)p.r(G)p.r(C)p.d(T)p.d(T)}|RNA2{r(G)p.r(C)p.r(G)p.r(A)p.r(G)p.r(U)p.r(G)p.r(U)p.r(U)p.r(G)p.r(G)p.r(A)p.r(G)p.r(C)p.r(G)p.r(C)p.r(U)p.r(C)p.r(G)p.d(A)p.d(T)}$$$RNA1{StrandType:ss}|RNA2{StrandType:as}$” was 15.2%; that for “RNA1{r(C)p.r(G)p.r(U)p.r(C)p.r(A)p.r(G)p.r(A)p.r(C)p.r(U)p.r(C)p.r(C)p.r(G)p.r(A)p.r(C)p.r(G)p.r(U)p.r(G)p.r(U)p.r(C)p.d(T)p.d(T)}|RNA2{r(G)p.r(A)p.r(C)p.r(A)p.r(C)p.r(G)p.r(U)p.r(C)p.r(G)p.r(G)p.r(A)p.r(G)p.r(U)p.r(C)p.r(U)p.r(G)p.r(A)p.r(C)p.r(G)p.d(G)p.d(C)}$$$RNA1{StrandType:ss}|RNA2{StrandType:as}$” was 77%.
Substance “RNA1{r(C)p.r(U)p.r(A)p.r(U)p.r(C)p.r(C)p.r(C)p.r(G)p.r(C)p.r(C)p.r(A)p.r(A)p.r(G)p.r(A)p.r(C)p.r(A)p.r(C)p.r(C)p.r(U)p.d(T)p.d(T)}|RNA2{r(A)p.r(G)p.r(G)p.r(U)p.r(G)p.r(U)p.r(C)p.r(U)p.r(U)p.r(G)p.r(G)p.r(C)p.r(G)p.r(G)p.r(G)p.r(A)p.r(U)p.r(A)p.r(G)p.d(C)p.d(G)}$$$RNA1{StrandType:ss}|RNA2{StrandType:as}$” gave a normalised inhibition (eCFP-eYFP dual reporter) of 70.7%.
For “RNA1{r(C)p.r(U)p.r(G)p.r(A)p.r(G)p.r(G)p.r(U)p.r(A)p.r(C)p.r(A)p.r(G)p.r(A)p.r(G)p.r(U)p.r(G)p.r(A)p.r(A)p.r(A)p.r(U)p.d(T)p.d(T)}|RNA2{r(A)p.r(U)p.r(U)p.r(U)p.r(C)p.r(A)p.r(C)p.r(U)p.r(C)p.r(U)p.r(G)p.r(U)p.r(A)p.r(C)p.r(C)p.r(U)p.r(C)p.r(A)p.r(G)p.d(C)p.d(C)}$$$RNA1{StrandType:ss}|RNA2{StrandType:as}$” the value was 59.1%.
As for “RNA1{r(C)p.r(U)p.r(G)p.r(G)p.r(C)p.r(U)p.r(G)p.r(A)p.r(G)p.r(G)p.r(U)p.r(A)p.r(C)p.r(A)p.r(G)p.r(A)p.r(G)p.r(U)p.r(G)p.d(T)p.d(T)}|RNA2{r(C)p.r(A)p.r(C)p.r(U)p.r(C)p.r(U)p.r(G)p.r(U)p.r(A)p.r(C)p.r(C)p.r(U)p.r(C)p.r(A)p.r(G)p.r(C)p.r(C)p.r(A)p.r(G)p.d(G)p.d(C)}$$$RNA1{StrandType:ss}|RNA2{StrandType:as}$”, the normalised inhibition (eCFP-eYFP dual reporter) turned out to be 34.8%.
For “RNA1{r(C)p.r(U)p.r(G)p.r(G)p.r(U)p.r(G)p.r(G)p.r(A)p.r(U)p.r(C)p.r(G)p.r(G)p.r(G)p.r(A)p.r(G)p.r(G)p.r(C)p.r(U)p.r(G)p.d(T)p.d(T)}|RNA2{r(C)p.r(A)p.r(G)p.r(C)p.r(C)p.r(U)p.r(C)p.r(C)p.r(C)p.r(G)p.r(A)p.r(U)p.r(C)p.r(C)p.r(A)p.r(C)p.r(C)p.r(A)p.r(G)p.d(T)p.d(C)}$$$RNA1{StrandType:ss}|RNA2{StrandType:as}$” the value was 40.7%; for “RNA1{r(C)p.r(U)p.r(U)p.r(G)p.r(G)p.r(A)p.r(A)p.r(G)p.r(C)p.r(C)p.r(U)p.r(A)p.r(C)p.r(U)p.r(G)p.r(G)p.r(A)p.r(A)p.r(G)p.d(T)p.d(T)}|RNA2{r(C)p.r(U)p.r(U)p.r(C)p.r(C)p.r(A)p.r(G)p.r(U)p.r(A)p.r(G)p.r(G)p.r(C)p.r(U)p.r(U)p.r(C)p.r(C)p.r(A)p.r(A)p.r(G)p.d(T)p.d(A)}$$$RNA1{StrandType:ss}|RNA2{StrandType:as}$”, 60.9%; for “RNA1{r(G)p.r(A)p.r(A)p.r(C)p.r(C)p.r(G)p.r(C)p.r(A)p.r(C)p.r(C)p.r(A)p.r(U)p.r(G)p.r(G)p.r(C)p.r(U)p.r(A)p.r(C)p.r(C)p.d(T)p.d(T)}|RNA2{r(G)p.r(G)p.r(U)p.r(A)p.r(G)p.r(C)p.r(C)p.r(A)p.r(U)p.r(G)p.r(G)p.r(U)p.r(G)p.r(C)p.r(G)p.r(G)p.r(U)p.r(U)p.r(C)p.d(A)p.d(G)}$$$RNA1{StrandType:ss}|RNA2{StrandType:as}$”, 49%.
As to “RNA1{r(G)p.r(A)p.r(G)p.r(A)p.r(U)p.r(C)p.r(C)p.r(C)p.r(U)p.r(A)p.r(U)p.r(G)p.r(G)p.r(A)p.r(G)p.r(G)p.r(U)p.r(C)p.r(U)p.d(T)p.d(T)}|RNA2{r(A)p.r(G)p.r(A)p.r(C)p.r(C)p.r(U)p.r(C)p.r(C)p.r(A)p.r(U)p.r(A)p.r(G)p.r(G)p.r(G)p.r(A)p.r(U)p.r(C)p.r(U)p.r(C)p.d(T)p.d(T)}$$$RNA1{StrandType:ss}|RNA2{StrandType:as}$”, the normalised inhibition (eCFP-eYFP dual reporter) came out at 71.5%.
The value for “RNA1{r(G)p.r(A)p.r(G)p.r(U)p.r(G)p.r(A)p.r(A)p.r(A)p.r(U)p.r(C)p.r(G)p.r(A)p.r(G)p.r(C)p.r(G)p.r(G)p.r(A)p.r(U)p.r(C)p.d(T)p.d(T)}|RNA2{r(G)p.r(A)p.r(U)p.r(C)p.r(C)p.r(G)p.r(C)p.r(U)p.r(C)p.r(G)p.r(A)p.r(U)p.r(U)p.r(U)p.r(C)p.r(A)p.r(C)p.r(U)p.r(C)p.d(T)p.d(G)}$$$RNA1{StrandType:ss}|RNA2{StrandType:as}$” was 84.9%.
The value for “RNA1{r(G)p.r(C)p.r(A)p.r(G)p.r(A)p.r(G)p.r(U)p.r(C)p.r(C)p.r(U)p.r(A)p.r(C)p.r(A)p.r(C)p.r(G)p.r(A)p.r(G)p.r(C)p.r(C)p.d(T)p.d(T)}|RNA2{r(G)p.r(G)p.r(C)p.r(U)p.r(C)p.r(G)p.r(U)p.r(G)p.r(U)p.r(A)p.r(G)p.r(G)p.r(A)p.r(C)p.r(U)p.r(C)p.r(U)p.r(G)p.r(C)p.d(T)p.d(G)}$$$RNA1{StrandType:ss}|RNA2{StrandType:as}$” was 79.4%; that for “RNA1{r(G)p.r(C)p.r(C)p.r(A)p.r(A)p.r(A)p.r(A)p.r(C)p.r(C)p.r(G)p.r(C)p.r(C)p.r(U)p.r(C)p.r(A)p.r(G)p.r(C)p.r(U)p.r(C)p.d(T)p.d(T)}|RNA2{r(G)p.r(A)p.r(G)p.r(C)p.r(U)p.r(G)p.r(A)p.r(G)p.r(G)p.r(C)p.r(G)p.r(G)p.r(U)p.r(U)p.r(U)p.r(U)p.r(G)p.r(G)p.r(C)p.d(G)p.d(C)}$$$RNA1{StrandType:ss}|RNA2{StrandType:as}$” was 54.1%; that for “RNA1{r(G)p.r(C)p.r(C)p.r(C)p.r(A)p.r(C)p.r(A)p.r(G)p.r(G)p.r(G)p.r(C)p.r(A)p.r(A)p.r(A)p.r(U)p.r(A)p.r(C)p.r(A)p.r(G)p.d(T)p.d(T)}|RNA2{r(C)p.r(U)p.r(G)p.r(U)p.r(A)p.r(U)p.r(U)p.r(U)p.r(G)p.r(C)p.r(C)p.r(C)p.r(U)p.r(G)p.r(U)p.r(G)p.r(G)p.r(G)p.r(C)p.d(T)p.d(G)}$$$RNA1{StrandType:ss}|RNA2{StrandType:as}$” was 75.8%.
“RNA1{r(G)p.r(G)p.r(C)p.r(C)p.r(G)p.r(G)p.r(U)p.r(U)p.r(C)p.r(U)p.r(G)p.r(G)p.r(G)p.r(G)p.r(C)p.r(G)p.r(C)p.r(A)p.r(A)p.d(T)p.d(T)}|RNA2{r(U)p.r(U)p.r(G)p.r(C)p.r(G)p.r(C)p.r(C)p.r(C)p.r(C)p.r(A)p.r(G)p.r(A)p.r(A)p.r(C)p.r(C)p.r(G)p.r(G)p.r(C)p.r(C)p.d(C)p.d(A)}$$$RNA1{StrandType:ss}|RNA2{StrandType:as}$”: the normalised inhibition (eCFP-eYFP dual reporter) came out at 79.6%.
